Like-named read-outs stand apart in the source and are kept apart here.

The target in one experiment is CK1δ (Homo sapiens, UniProt P48730). The experiment can be described thus: CK1δ kinase assay (Caliper LabChip electrophoretic separation of fluoresceinated peptide substrate and product). In kind it is biochemical. The conditions noted are these: 200 pM CK1δ, 50 μM ATP, 1.5 μM peptide, 22 hours at room temperature. A digest of the protocol:
(§1)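 Eleven-concentration compound series in kinase reactions run for 22 hours at room temperature. Terminated with EDTA, with product conversion read by electrophoretic separation. Non-linear regression gave IC50.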

The target of a further experiment is CK1ε (Homo sapiens, UniProt P49674). The experiment can be described thus: CK1ε kinase assay (Caliper LabChip electrophoretic separation of fluoresceinated peptide substrate and product). Format: biochemical. To be noted: 200 pM CK1ε, 50 μM ATP, 1.5 μM peptide, 22 hours at room temperature. In short, it runs like this: as §1
CK1ε, sequence (P49674 whole entry): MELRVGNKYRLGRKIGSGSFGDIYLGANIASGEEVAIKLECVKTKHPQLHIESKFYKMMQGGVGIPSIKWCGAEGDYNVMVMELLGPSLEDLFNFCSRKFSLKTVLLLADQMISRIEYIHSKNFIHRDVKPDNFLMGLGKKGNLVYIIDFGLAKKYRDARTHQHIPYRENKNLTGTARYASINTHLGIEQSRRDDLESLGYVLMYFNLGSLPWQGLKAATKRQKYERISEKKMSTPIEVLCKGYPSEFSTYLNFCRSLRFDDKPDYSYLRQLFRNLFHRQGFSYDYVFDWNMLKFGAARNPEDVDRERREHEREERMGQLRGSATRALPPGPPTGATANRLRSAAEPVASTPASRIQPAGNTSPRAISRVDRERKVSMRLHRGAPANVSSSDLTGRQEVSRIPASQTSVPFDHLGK

CK1δ, sequence (P48730 whole entry): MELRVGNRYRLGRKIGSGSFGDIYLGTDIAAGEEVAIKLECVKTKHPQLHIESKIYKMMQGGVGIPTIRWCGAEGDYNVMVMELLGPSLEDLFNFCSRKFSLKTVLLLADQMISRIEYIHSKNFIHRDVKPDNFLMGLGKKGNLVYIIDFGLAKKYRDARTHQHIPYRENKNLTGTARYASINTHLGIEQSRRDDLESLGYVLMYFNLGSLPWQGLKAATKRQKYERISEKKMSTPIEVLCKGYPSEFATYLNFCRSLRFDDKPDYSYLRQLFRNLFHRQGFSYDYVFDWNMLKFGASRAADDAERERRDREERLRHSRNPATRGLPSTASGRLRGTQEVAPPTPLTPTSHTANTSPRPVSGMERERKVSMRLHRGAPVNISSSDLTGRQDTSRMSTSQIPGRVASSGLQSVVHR

For `CO[C@H]1C[C@H](NC(=O)N2CCn3nc(-c4cccc(Cl)c4)c(C(N)=O)c3C2)C1` [Compound 178, 2-(3-Chlorophenyl)-N^5-((1r,3r)-3-methoxycyclobutyl)-6,7-dihydropyrazolo [1,5-a]pyrazine-3,5(4H)-dicarboxamide], the IC50 at CK1δ (read-out: CK1δ IC50 range) and on CK1ε (read-out: CK1ε IC50 range) was 0.01 to 10 nM each time.

Regarding `COc1ccc(CCNC(=O)N2CCn3nc(-c4cccc(F)c4)c(C(N)=O)c3C2)cc1` [Compound 47, 2-(3-Fluorophenyl)-N^5-(4-methoxyphenethyl)-6,7-dihydropyrazolo[1,5-a]pyrazine-3,5(4H)-dicarboxamide], the IC50 lay in the range of 10 to 100 nM on CK1δ (read-out: CK1δ IC50 range) and 100 to 2000 nM on CK1ε (read-out: CK1ε IC50 range).

Regarding `CC(C)(O)C12CCC(NC(=O)N3CCn4nc(-c5ccc(F)c(Cl)c5)c(C(N)=O)c4C3)(CC1)CC2` [Compound A62, 2-(3-Chloro-4-fluorophenyl)-N^5-(4-(2-hydroxypropan-2-yl)bicyclo[2.2.2]octan-1-yl)-6,7-dihydropyrazolo[1,5-a]pyrazine-3,5(4H)-dicarboxamide], the IC50 at CK1δ (read-out: CK1δ IC50 range) and at CK1ε (read-out: CK1ε IC50 range) was 0.01 to 10 nM each time.

As for `CC(C)(CO)NC(=O)N1CCn2nc(-c3ccc(F)c(Cl)c3)c(C(N)=O)c2C1` [Compound A48, 2-(3-Chloro-4-fluorophenyl)-N^5-(1-hydroxy-2-methylpropan-2-yl)-6,7-dihydropyrazolo[1,5-a] pyrazine-3,5(4H)-dicarboxamide], the IC50 on CK1δ (read-out: CK1δ IC50 range) and at CK1ε (read-out: CK1ε IC50 range) was 0.01 to 10 nM in each case.

In the case of `CC(C)(C)NC(=O)N1CCn2nc(-c3cccc(Cl)c3Cl)c(C(N)=O)c2C1` [Compound 130, N^5-(tert-Butyl)-2-(2,3-dichlorophenyl)-6,7-dihydropyrazolo[1,5-a] pyrazine-3,5(4H)-dicarboxamide], the IC50 at CK1δ (read-out: CK1δ) is 96.4 nM; at CK1δ (read-out: CK1δ IC50 range), 10 to 100 nM; on CK1ε (read-out: CK1ε), 89.5 nM; at CK1ε (read-out: CK1ε IC50 range), 10 to 100 nM.

Take `CC1CN(C(=O)NC2CC(F)(F)C2)Cc2c(C(N)=O)c(-c3cccc(Cl)c3)nn21` (single isomer, unassigned) [Compound A110, 2-(3-Chlorophenyl)-N^5-(3,3-difluorocyclobutyl)-7-methyl-6,7-dihydropyrazolo[1,5-a]pyrazine-3,5(4H)-dicarboxamide]: the IC50 at CK1δ (read-out: CK1δ IC50 range) and at CK1ε (read-out: CK1ε IC50 range) was 0.01 to 10 nM in each case.

For `N#Cc1ccc(O[C@H]2C[C@H](NC(=O)N3CCn4nc(-c5ccc(F)c(Cl)c5)c(C(N)=O)c4C3)C2)cc1` [Compound 266, 2-(3-Chloro-4-fluorophenyl)-N^5-((1r,3r)-3-(4-cyanophenoxyl)cyclobutyl)-6,7-dihydropyrazolo[1,5-a]pyrazine-3,5(4H)-dicarboxamide], the IC50 at CK1δ (read-out: CK1δ IC50 range) and on CK1ε (read-out: CK1ε IC50 range) was 0.01 to 10 nM throughout.

In the case of `CC(C)(C)NC(=O)N1CCn2nc(-c3cccc4ncccc34)c(C(N)=O)c2C1` [Compound 132, N^5-(tert-Butyl)-2-(quinolin-5-yl)-6,7-dihydropyrazolo[1,5-a]pyrazine-3,5(4H)-dicarboxamide], the IC50 at CK1δ (read-out: CK1δ IC50 range) and on CK1ε (read-out: CK1ε IC50 range) was 100 to 2000 nM in each case.

On to `CC1(C)CC(NC(=O)N2CCn3nc(-c4cccc(F)c4)c(C(N)=O)c3C2)CC(C)(C)N1` [Compound 18, 2-(3-Fluorophenyl)-N^5-(2,2,6,6-tetramethylpiperidin-4-yl)-6,7-dihydropyrazolo[1,5-a]pyrazine-3,5(4H)-dicarboxamide], for which the IC50 on CK1δ (read-out: CK1δ IC50 range) lay within 10 to 100 nM; at CK1ε (read-out: CK1ε IC50 range) it was 100 to 2000 nM.

Take `CC(C)(C)NC(=O)N1Cc2c(C(N)=O)c(-c3cccc(F)c3)nn2C(CF)C1` (single isomer, unassigned) [Compound A107, N^5-(tert-Butyl)-7-(fluoromethyl)-2-(3-fluorophenyl)-6,7-dihydropyrazolo[1,5-a]pyrazine-3,5(4H)-dicarboxamide]: the IC50 on CK1δ (read-out: CK1δ IC50 range) and on CK1ε (read-out: CK1ε IC50 range) was 0.01 to 10 nM each time.

As to `Cc1ccc(NC(=O)N2CCn3nc(-c4cccc(F)c4)c(C(N)=O)c3C2)nn1` [Compound 83, 2-(3-Fluorophenyl)-N^5-(6-methylpyridazin-3-yl)-6,7-dihydropyrazolo[1,5-a]pyrazine-3,5(4H)-dicarboxamide], the figures for the IC50 at CK1δ (read-out: CK1δ IC50 range) and at CK1ε (read-out: CK1ε IC50 range) were 100 to 2000 nM and 10 to 100 nM, respectively.

As for `N#CC12CCC(NC(=O)N3CCn4nc(-c5ccc(F)c(Cl)c5)c(C(N)=O)c4C3)(CC1)C2` [Compound A140, 2-(3-Chloro-4-fluorophenyl)-N^5-(4-cyanobicyclo[2.2.1]heptan-1-yl)-6,7-dihydropyrazolo[1,5-a]pyrazine-3,5(4H)-dicarboxamide], the IC50 on CK1δ (read-out: CK1δ IC50 range) and on CK1ε (read-out: CK1ε IC50 range) was 0.01 to 10 nM throughout.

As to `NC(=O)c1c(-c2cccc(Cl)c2)nn2c1CN(C(=O)NC1(c3ccc(F)cc3)CC(F)(F)C1)CC2` [Compound 309, 2-(3-Chlorophenyl)-N^5-(3,3-difluoro-1-(4-fluorophenyl)cyclobutyl)-6,7-dihydropyrazolo[1,5-a] pyrazine-3,5(4H)-dicarboxamide], the IC50 at CK1δ (read-out: CK1δ IC50 range) and on CK1ε (read-out: CK1ε IC50 range) was 0.01 to 10 nM throughout.

On to “N^5-(tert-Butyl)-2-(3-chloro-4-fluorophenyl)-7-(2-cyanoethyl)-6,7-dihydropyrazolo[1,5-a]pyrazine-3,5(4H)-dicarboxamide [Compound A104]”, for which the IC50 at CK1δ (read-out: CK1δ IC50 range) and at CK1ε (read-out: CK1ε IC50 range) was 0.01 to 10 nM each time.

In the case of `NC(=O)c1c(-c2cccc(Cl)c2)nn2c1CN(C(=O)N[C@@H]1CC[C@@H]1C(F)F)CC2` [Compound 239, 2-(3-Chlorophenyl)-N^5-((1R,2S)-2-(difluoromethyl)cyclobutyl)-6,7-dihydropyrazolo[1,5-a] pyrazine-3,5(4H)-dicarboxamide], the IC50 at CK1δ (read-out: CK1δ IC50 range) and at CK1ε (read-out: CK1ε IC50 range) was 0.01 to 10 nM throughout.

Consider `CC1(NC(=O)N2CCn3nc(-c4ccc(F)c(Cl)c4)c(C(N)=O)c3C2)CC2(CC2)C1` [Compound 317, 2-(3-Chloro-4-fluorophenyl)-N^5-(5-methylspiro[2.3]hexan-5-yl)-6,7-dihydropyrazolo[1,5-a]pyrazine-3,5(4H)-dicarboxamide], for which the IC50 on CK1δ (read-out: CK1δ IC50 range) and on CK1ε (read-out: CK1ε IC50 range) was 0.01 to 10 nM each time.

Regarding `CC(C)(NC(=O)N1CCn2nc(-c3ccc(F)c(Cl)c3)c(C(N)=O)c2C1)C(N)=O` [Compound 219, N^5-(1-Amino-2-methyl-1-oxopropan-2-yl)-2-(3-chloro-4-fluorophenyl)-6,7-dihydropyrazolo[1,5-a] pyrazine-3,5(4H)-dicarboxamide], the IC50 on CK1δ (read-out: CK1δ IC50 range) and on CK1ε (read-out: CK1ε IC50 range) was 10 to 100 nM throughout.

As to `NC(=O)c1c(-c2ccc(F)c(Cl)c2)nn2c1CN(C(=O)NC1CC3(CC3)C1)CC2` [Compound 195, 2-(3-Chloro-4-fluorophenyl)-N^5-(spiro [2.3]hexan-5-yl)-6,7-dihydropyrazolo[1,5-a] pyrazine-3,5(4H)-dicarboxamide], the IC50 on CK1δ (read-out: CK1δ IC50 range) and on CK1ε (read-out: CK1ε IC50 range) was 0.01 to 10 nM in each case.

`CC(C)(COC(F)(F)F)NC(=O)N1CCn2nc(-c3ccc(F)c(Cl)c3)c(C(N)=O)c2C1` [Compound 212, 2-(3-Chloro-4-fluorophenyl)-N^5-(2-methyl-1-(trifluoromethoxy)propan-2-yl)-6,7-dihydropyrazolo[1,5-a]pyrazine-3,5(4H)-dicarboxamide]: the IC50 on CK1δ (read-out: CK1δ IC50 range) and at CK1ε (read-out: CK1ε IC50 range) was 0.01 to 10 nM throughout.

As to `COC12CCC(NC(=O)N3CCn4nc(-c5ccc(F)c(Cl)c5)c(C(N)=O)c4C3)(CC1)C(F)(F)C2` [Compound A61, 2-(3-Chloro-4-fluorophenyl)-N^5-(2,2-difluoro-4-methoxybicyclo[2.2.2]octan-1-yl)-6,7-dihydropyrazolo[1,5-a]pyrazine-3,5(4H)-dicarboxamide], the IC50 at CK1δ (read-out: CK1δ IC50 range) and at CK1ε (read-out: CK1ε IC50 range) was 0.01 to 10 nM each time.

`NC(=O)c1c(-c2ccc(F)c(Cl)c2)nn2c1CN(C(=O)NC1CC3(C1)CC(F)(F)C3)CC2` [Compound 196, 2-(3-Chloro-4-fluorophenyl)-N^5-(6,6-difluorospiro[3.3]heptan-2-yl)-6,7-dihydropyrazolo[1,5-a] pyrazine-3,5(4H)-dicarboxamide]: the IC50 on CK1δ (read-out: CK1δ IC50 range) and at CK1ε (read-out: CK1ε IC50 range) was 0.01 to 10 nM each time.

Turning to `NC(=O)c1c(-c2cccc(Cl)c2)nn2c1CN(C(=O)NC1(C(F)F)CCC1)CC2` [Compound 236, 2-(3-Chlorophenyl)-N^5-(1-(difluoromethyl)cyclobutyl)-6,7-dihydropyrazolo[1,5-a] pyrazine-3,5(4H)-dicarboxamide], the IC50 at CK1δ (read-out: CK1δ IC50 range) and on CK1ε (read-out: CK1ε IC50 range) was 0.01 to 10 nM throughout.

Consider `CC(C)(C)NC(=O)N1CCn2nc(-c3ccc(F)c(C(F)(F)F)c3)c(C(N)=O)c2C1` [Compound 139, N^5-(tert-Butyl)-2-(4-fluoro-3-(trifluoromethyl)phenyl)-6,7-dihydropyrazolo[1,5-a] pyrazine-3,5(4H)-dicarboxamide], for which the IC50 is 10 to 100 nM at CK1δ (read-out: CK1δ IC50 range) and 100 to 2000 nM on CK1ε (read-out: CK1ε IC50 range).

With `CC(C)(C)NC(=O)N1CCn2nc(-c3cnc(N4CCCC4)nc3)c(C(N)=O)c2C1` [Compound 146, N^5-(tert-Butyl)-2-(2-(pyrrolidin-1-yl)pyrimidin-5-yl)-6,7-dihydropyrazolo[1,5-a]pyrazine-3,5(4H)-dicarboxamide], the IC50 on CK1δ (read-out: CK1δ IC50 range) and at CK1ε (read-out: CK1ε IC50 range) was 100 to 2000 nM each time.

With `COc1cc(NC(=O)N2CCn3nc(-c4cccc(F)c4)c(C(N)=O)c3C2)ncn1` [Compound 75, 2-(3-Fluorophenyl)-N^5-(6-methoxypyrimidin-4-yl)-6,7-dihydropyrazolo[1,5-a]pyrazine-3,5(4H)-dicarboxamide], the IC50 at CK1δ (read-out: CK1δ IC50 range) and at CK1ε (read-out: CK1ε IC50 range) was 10 to 100 nM in each case.

Regarding `CC1(NC(=O)N2CCn3nc(-c4ccc(F)c(Cl)c4)c(C(N)=O)c3C2)CC(F)(F)C1` [Compound 296, 2-(3-Chloro-4-fluorophenyl)-N^5-(3,3-difluoro-1-methylcyclobutyl)-6,7-dihydropyrazolo[1,5-a]pyrazine-3,5(4H)-dicarboxamide], the IC50 on CK1δ (read-out: CK1δ IC50 range) and at CK1ε (read-out: CK1ε IC50 range) was 0.01 to 10 nM each time.

The values are drawn from patent publication US9273058B2 (BRISTOL-MYERS SQUIBB COMPANY, priority 2013, dated 2016).
